One data set can be described thus: Metabolic stability test.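 Note: 100% equals the compound amount at 0 min reaction.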 The format is in vitro ADME. The following applies: human liver microsome 0.5 mg protein/mL, 1 mmol/L NADPH, 37° C. In outline: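 Pooled human liver microsomes (0.5 mg protein/mL) incubated with compound and 1 mmol/L NADPH at 37° C. in pH 7.4 Tris buffer for 0 or 30 min. Parent quantified by LC/MS/MS after methanol/acetonitrile quench; value is % remaining at 30 min versus 0 min.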

A further data set addresses T1, CYP2C9 (Homo sapiens, UniProt P11712).
T1 construct: enzyme: pooled human liver microsome 0.2 mg protein/mL; from tissue; host or cells: pooled human liver microsome
Kind of data set: CYP inhibition test, pooled human liver microsome, CYP2C9. Particulars: methyl-hydroxylation of tolbutamide. The format is in vitro ADME. In short, it runs like this: (§1)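 Pooled human liver microsomes (0.2 mg protein/mL) in 50 mmol/L Hepes with NADPH, 15 min at 37° C; test drug at 1, 5, 10, 20 μmol/L. Substrates: 0.5 μmol/L ethoxyresorufin (1A2, resorufin by fluorescence), 100 μmol/L tolbutamide (2C9), 5 μmol/L dextromethorphan (2D6), 1 μmol/L terfenadine (3A4), metabolites by LC/MS/MS. IC50 from remaining activity vs DMSO control, logistic model.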

The target in another data set is T2, CYP2D6 (Homo sapiens, UniProt P10635).
T2 construct: enzyme: pooled human liver microsome 0.2 mg protein/mL; from tissue; host or cells: pooled human liver microsome
Nature of the data set: CYP inhibition test, pooled human liver microsome, CYP2D6. The format is in vitro ADME. The following applies: O-demethylation of dextromethorphan. In short, it runs like this: as §1

Data set [1] deals with T3, human ether-a-go-go related gene (hERG) channel (Homo sapiens, UniProt Q12809).
T3 construct: expressed in transfected cells; host or cells: HEK293
Nature of the data set: hERG test, whole-cell patch-clamp. The format is cell-based. The following applies: HEK293 cell expressing hERG; applied for 10 minutes; concentration not given. The source says:
For the purpose of risk evaluation of QT interval extension of electrocardiogram, the activity on delayed rectification K^+ current (IKr), which plays an important role in a cardiac ventricle repolarization process, was examined using the HEK293 cell that was made to express human ether-a-go-go related gene (hERG) channel.
Using an automatic patch-clamp system (PatchXpress 7000A, Axon Instruments Inc.), by a whole-cell patch-clamp method, after the cell was maintained at a membrane potential of −80 mV, IKr induced upon applying depolarizing stimulation of +50 mV for 2 seconds and further applying repolarizing stimulation of −50 mV for 2 seconds was recorded. After generated electric current became stable, a test substance dissolved at an intended concentration in extracellular fluid (137 mmol/L NaCl, 4 mmol/L KCl, 1.8 mmol/L CaCl2.2H2O, 1 mmol/L MgCl2.6H2O, 10 mmol/L glucose, 10 mmol/L HEPES (4-(2-hydroxyethyl)-1-piperazineethanesulfonic acid), pH=7.4) was applied to the cell for 10 minutes under room temperature condition. From the obtained IKr, the absolute value of the maximum tail current was measured using analysis software (DataXpress ver. 1, Molecular Devices Corporation) and the value of the electric current in a maintained membrane potential as baseline. Moreover, an inhibition ratio for the maximum tail current prior to the application of the test substance was calculated and then compared with a group of media-application (0.1% dimethylsulfoxide solution) to evaluate influence of the test substance on IKr.

The next data set in a line: Solubility test. The format is physicochemical. Particulars: kinetic from dmso stock; artificial intestinal juice pH 6.8, 1% DMSO, 25° C. for 16 hours. In short, it runs like this:
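Kinetic solubility with 1% DMSO: compound from 10 mmol/L DMSO stock spiked into pH 6.8 phosphate artificial intestinal juice, held 16 h at 25 °C, then suction-filtered. Filtrate diluted twofold in methanol/water (1/1) and quantified by HPLC or LC/MS/MS via absolute calibration.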

Results on 8 compounds are retold here after US20110230472A1, “RING-FUSED AZOLE DERIVATIVE HAVING PI3K-INHIBITING ACTIVITY” (Shionogi & Co., Ltd., priority 2008, published 2011).

Structures are written as SMILES.

T3 sequence (Q12809 whole entry): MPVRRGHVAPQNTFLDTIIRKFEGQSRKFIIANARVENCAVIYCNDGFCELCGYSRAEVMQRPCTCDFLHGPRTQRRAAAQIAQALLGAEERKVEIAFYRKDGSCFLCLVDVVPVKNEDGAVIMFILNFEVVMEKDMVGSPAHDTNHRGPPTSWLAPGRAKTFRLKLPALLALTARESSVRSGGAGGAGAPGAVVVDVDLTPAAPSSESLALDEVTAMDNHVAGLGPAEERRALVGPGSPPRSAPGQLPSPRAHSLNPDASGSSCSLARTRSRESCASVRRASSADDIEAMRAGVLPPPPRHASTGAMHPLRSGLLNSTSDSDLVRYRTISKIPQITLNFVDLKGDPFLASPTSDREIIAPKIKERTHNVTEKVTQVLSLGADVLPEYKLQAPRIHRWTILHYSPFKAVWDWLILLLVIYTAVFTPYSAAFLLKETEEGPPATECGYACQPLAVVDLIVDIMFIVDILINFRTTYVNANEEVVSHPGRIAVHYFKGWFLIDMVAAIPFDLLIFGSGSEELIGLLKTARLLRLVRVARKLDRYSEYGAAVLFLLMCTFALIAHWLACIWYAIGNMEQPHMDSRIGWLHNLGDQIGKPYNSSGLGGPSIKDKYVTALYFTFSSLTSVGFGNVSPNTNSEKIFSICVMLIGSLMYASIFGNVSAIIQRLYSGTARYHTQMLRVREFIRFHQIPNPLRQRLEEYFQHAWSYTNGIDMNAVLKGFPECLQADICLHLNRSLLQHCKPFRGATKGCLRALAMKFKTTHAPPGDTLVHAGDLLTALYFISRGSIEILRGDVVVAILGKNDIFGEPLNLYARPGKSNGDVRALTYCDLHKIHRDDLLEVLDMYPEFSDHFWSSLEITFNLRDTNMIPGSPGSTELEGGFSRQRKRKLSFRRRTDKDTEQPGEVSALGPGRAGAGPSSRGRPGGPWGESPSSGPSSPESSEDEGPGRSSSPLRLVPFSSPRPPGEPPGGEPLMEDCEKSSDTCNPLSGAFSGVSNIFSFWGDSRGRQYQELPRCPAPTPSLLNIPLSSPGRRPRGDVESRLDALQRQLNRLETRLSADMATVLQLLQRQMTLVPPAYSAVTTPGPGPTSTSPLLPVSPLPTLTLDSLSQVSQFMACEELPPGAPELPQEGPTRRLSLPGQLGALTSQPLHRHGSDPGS
T1 sequence (P11712 whole entry): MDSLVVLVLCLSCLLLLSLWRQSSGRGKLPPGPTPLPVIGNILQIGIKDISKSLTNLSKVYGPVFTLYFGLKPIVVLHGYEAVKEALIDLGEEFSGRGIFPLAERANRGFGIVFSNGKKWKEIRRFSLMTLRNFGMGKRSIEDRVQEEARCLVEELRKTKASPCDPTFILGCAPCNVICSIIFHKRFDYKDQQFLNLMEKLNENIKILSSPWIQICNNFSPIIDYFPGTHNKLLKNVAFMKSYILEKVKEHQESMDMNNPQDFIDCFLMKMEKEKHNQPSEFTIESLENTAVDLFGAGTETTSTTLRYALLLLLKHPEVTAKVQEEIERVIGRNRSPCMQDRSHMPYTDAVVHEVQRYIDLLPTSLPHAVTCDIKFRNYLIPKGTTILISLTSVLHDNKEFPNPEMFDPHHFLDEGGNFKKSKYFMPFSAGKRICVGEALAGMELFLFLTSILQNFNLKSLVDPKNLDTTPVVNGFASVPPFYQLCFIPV
T2 sequence (P10635 whole entry): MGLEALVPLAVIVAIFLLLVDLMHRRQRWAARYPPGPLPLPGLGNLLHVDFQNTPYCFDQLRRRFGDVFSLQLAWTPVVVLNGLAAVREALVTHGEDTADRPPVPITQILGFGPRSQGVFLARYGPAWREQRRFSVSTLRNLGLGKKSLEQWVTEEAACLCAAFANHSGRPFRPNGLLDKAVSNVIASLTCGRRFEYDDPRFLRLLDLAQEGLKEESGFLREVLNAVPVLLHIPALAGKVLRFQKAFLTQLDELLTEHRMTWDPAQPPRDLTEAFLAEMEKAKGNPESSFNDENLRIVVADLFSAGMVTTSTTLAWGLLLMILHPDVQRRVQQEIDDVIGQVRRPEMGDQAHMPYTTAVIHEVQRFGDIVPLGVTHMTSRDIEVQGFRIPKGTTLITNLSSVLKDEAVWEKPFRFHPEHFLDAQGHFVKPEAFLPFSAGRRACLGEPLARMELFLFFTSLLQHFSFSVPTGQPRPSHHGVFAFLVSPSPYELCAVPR

`CNC(=O)Nc1cc2n(n1)CCN2c1ccc(S(C)(=O)=O)cc1` [Compound I-89]: in the data set “Metabolic stability test”, the “percentage of the test compound remained after reacting for 30 minutes” value (“percentage of the test compound remained” below) worked out at 93.6%. Further, the IC50 on CYP2C9 and against CYP2D6 was above 20 µM throughout. The “inhibition ratio for the maximum tail current (IKr)” value (“inhibition ratio” for short) in data set [1] was below 0.5%.

As for `CNC(=O)Nc1nc2c(s1)CN(c1cc(Cl)nc(N)n1)CC2` [Compound I-118], the solubility at 16 h in the data set “Solubility test” is above 50 µM. The “percentage of the test compound remained” value in the data set “Metabolic stability test” stood at 98.3%. Moreover, the 50% inhibitory concentration (IC50) against CYP2C9 and on CYP2D6 was above 20 µM in each case. Also, the “inhibition ratio” value in data set [1] is 8.4%.

For the compound `CNC(=O)Nc1nc2c(s1)CN(c1ccnc(OC)n1)CC2` [Compound I-142], in “Solubility test”, the solubility at 16 h is above 50 µM. Further, the “percentage of the test compound remained” value in the data set “Metabolic stability test” is reported as 97.5%. For the same compound, the IC50 at CYP2C9 and on CYP2D6 was above 20 µM each time.

In the data set “Solubility test”, `CNC(=O)Nc1cc2n(n1)CCN2c1cc(C(=O)N2CCOCC2)cc(-c2ccc(N)nc2)c1` [Compound I-200] showed a solubility at 16 h above 50 µM. Further, the “percentage of the test compound remained” value in “Metabolic stability test” turned out to be 98.6%. Also, the IC50 on CYP2C9 and against CYP2D6 was above 20 µM throughout. Further, the “inhibition ratio” value in data set [1] is listed as 7.3%.

Turning to `COc1cc(N2CCc3nc(NC(=O)NCC(=O)O)sc3C2)nc(OC)n1` [Compound I-208], the solubility at 16 h in “Solubility test” was above 50 µM. Moreover, the “percentage of the test compound remained” value in “Metabolic stability test” is listed as 87.2%. The IC50 at CYP2C9 and against CYP2D6 was above 20 µM throughout. In data set [1], the “inhibition ratio” value is 2.7%.

As for `COc1cc(N2CCc3nc(NC(=O)NCc4cc(=O)[nH]o4)sc3C2)nc(OC)n1` [Compound I-279], the “percentage of the test compound remained” value in “Metabolic stability test” is listed as 99.7%. Moreover, the IC50 against CYP2C9 and on CYP2D6 was above 20 µM each time. In data set [1], the “inhibition ratio” value turned out to be 5%.

For the compound `CN1CCc2cc(N3CCn4nc(NC(=O)c5cccnc5)cc43)ccc2C1=O` [Compound I-347], the solubility at 16 h in “Solubility test” was above 50 µM. Besides, in the data set “Metabolic stability test”, the “percentage of the test compound remained” value came to 92%. The IC50 against CYP2C9 and against CYP2D6 was above 20 µM each time. For the same compound, in data set [1], the “inhibition ratio” value came to 6%.

For the compound `CN1CCc2cc(N3CCn4nc(NC(=O)c5ccco5)cc43)ccc2C1=O` [Compound I-358], the solubility at 16 h in the data set “Solubility test” is above 50 µM. The “percentage of the test compound remained” value in the data set “Metabolic stability test” stood at 88.4%. The IC50 at CYP2C9 and against CYP2D6 was above 20 µM throughout.
